# Assays:
# HEK293T cells = assay: in vitro; format: cell-based; settings: human, 72 h
# Method: (§1) The 3-(4,5-dimethylthiazol-2-yl)-2,5-diphenyltetrazolium bromide (MTT) method was performed to assess the cytotoxicity of target compounds in MDCK cells and HEK293T cells. Firstly, MDCK cells or HEK293T cells were seeded into the 96-well plate. Then, the media containing test compounds replaced the growth media after 48 h. Incubate MDCK cells or HEK293T cells with test compounds for 72 h at 37 °C in a humidified 5% CO2 incubator. Later, MTT solution (5 mg/mL in PBS) was added into each well and plates were incubated for 4 h at 37 °C. Then, add a solubilization solution to lyse cells. Finally, absorbance was read at 620 nm using an ELISA plate reader (Tecan Sunrise) after 3 h of further incubation at 37 °C. We set the values obtained from the wells treated with only DMSO as 100% of viable cells.
# in vitro [1] = format: cell-based; settings: human
# Method: as §1
# [2] = tested on: influenza virus A/WSN/33 (H1N1); assay: microbe, parasite or virus in culture; format: cell-based; settings: MDCK, 72 h; for inhibition at 12.5 µM / inhibition at 25 µM / inhibition at 50 µM / inhibition at 100 µM: H1N1|WSN, read-out: Antiviral activity in CPE assay; for EC50: read-out: Cytopathic Effect Assay (A/WSN/33, H1N1) EC50
# MDCK cells = assay: in vitro; format: cell-based, canine; settings: dog, 72 h
# Method: as §1
# in vitro [3] = format: cell-based, canine; settings: dog
# Method: as §1
# [4] = tested on: influenza virus A/WSN/33 (H1N1); assay: Plaque inhibition assay in MDCK cells; format: cell-based; settings: MDCK, read-out: Plaque Inhibition Assay (A/WSN/33, H1N1) Inhibition Rate; for inhibition at 100 µM: concentration 100 µM; for inhibition at 25 µM: concentration 25 µM
SMILES,HEK293T cells survival rate (HEK293T cells; 3.125 µmol·L−1),HEK293T cells survival rate (HEK293T cells; 6.25 µmol·L−1),HEK293T cells survival rate (HEK293T cells; 12.5 µmol·L−1),HEK293T cells survival rate (HEK293T cells; 25 µmol·L−1),HEK293T cells survival rate (HEK293T cells; 50 µmol·L−1),HEK293T cells survival rate (HEK293T cells; 100 µmol·L−1),CC50 at 72 h (in vitro [1]),inhibition at 12.5 µM [2],inhibition at 25 µM [2],inhibition at 50 µM [2],inhibition at 100 µM [2],EC50 [2],MDCK cells survival rate (MDCK cells; 12.5 µmol·L−1),MDCK cells survival rate (MDCK cells; 25 µmol·L−1),MDCK cells survival rate (MDCK cells; 50 µmol·L−1),MDCK cells survival rate (MDCK cells; 100 µmol·L−1),CC50 at 72 h (in vitro [3]),melting point,inhibition at 100 µM [4],inhibition at 25 µM [4],other results
"O=C(NC1CCC(O)CC1)c1ccc(Nc2ccnc3cc(C(F)(F)F)ccc23)cc1 (stereo not drawn) [Compound G10, N-(4-Hydroxycyclohexyl)-4-{[7-(trifluoromethyl)quinolin-4-yl]amino}benzamide]",108.01±12.84%,104.56±4.92%,98.12±8.96%,98.50±8.84%,99.09±8.41%,109.24±7.99%,> 100 µM,48.9 ± 2.01%,58 ± 1.69%,66.2 ± 2.87%,63.8 ± 5.18%,10.4 ± 0.22 µM,84.64±7.10%,109.11±15.21%,127.95±8.15%,110.17±2.79%,> 100 µM,324 to 325 °C,7.41%,–,–
"O=C(NCc1ccccc1)c1ccc(Nc2ccnc3cc(C(F)(F)F)ccc23)cc1 [Compound G11, N-Benzyl-4-{[7-(trifluoromethyl)quinolin-4-yl]amino}benzamide]",129.49±22.76%,101.78±7.08%,105.25±12.82%,108.76±5.63%,103.77±9.35%,86.44±8.60%,> 100 µM,47.7 ± 9.63%,52.4 ± 3.44%,44.1 ± 1.38%,47.3 ± 0.92%,7.17 ± 1.53 µM,148.07±0.17%,123.28±5.69%,127.54±0.33%,137.86±9.32%,> 100 µM,263.4 to 265.8 °C,50%,–,–
"Cc1ccccc1N1CCN(C(=O)c2ccc(Nc3ccnc4cc(C(F)(F)F)ccc34)cc2)CC1 [Compound G13, [4-(O-tolyl)piperazin-1-yl]{4-{[7-(trifluoromethyl)quinolin-4-yl]amino}phenyl}methanone]",99.14±6.42%,96.29±4.65%,89.92±2.14%,88.23±4.29%,80.60±2.01%,81.89±2.67%,> 100 µM,27 ± 2.2%,33.1 ± 4.47%,36.9 ± 4.41%,34.3 ± 7.15%,> 100 µM,89.39±3.87%,87.73±16.36%,92.20±10.16%,65.91±7.51%,> 100 µM,194.7 to 195.6 °C,< 10%,–,–
"Cc1ccc(N2CCN(C(=O)c3ccc(Nc4ccnc5cc(C(F)(F)F)ccc45)cc3)CC2)cc1 [Compound G14, [4-(P-tolyl)piperazin-1-yl]{4-{[7-(trifluoromethyl)quinolin-4-yl]amino}phenyl}methanone]",105.78±7.34%,95.00±7.82%,89.38±1.59%,80.67±2.20%,76.77±5.03%,77.49±2.55%,> 100 µM,16.43 ± 0.12%,20.7 ± 3.82%,23.4 ± 2.31%,27.9 ± 2.05%,> 100 µM,82.40±6.45%,91.16±1.34%,72.26±17.99%,56.76±2.08%,> 100 µM,192 to 193.8 °C,–,< 10%,–
"O=C(c1ccc(Nc2ccnc3cc(C(F)(F)F)ccc23)cc1)N1CCN(c2ccc(OC(F)(F)F)cc2)CC1 [Compound G15, {4-[4-(Trifluoromethoxy)phenyl]piperazin-1-yl}{4-{[7-(trifluoromethyl)quinolin-4-yl]amino}phenyl}methanone]",105.64±1.62%,104.46±0.45%,93.38±3.30%,103.00±3.15%,89.01±2.08%,81.59±1.91%,> 100 µM,36.9 ± 0.82%,39.8 ± 4.98%,35.3 ± 1.81%,45.6 ± 5.12%,> 100 µM,92.13±3.70%,82.80±5.22%,93.36±4.01%,76.18±1.27%,> 100 µM,195.9 to 196.4 °C,–,–,inhibition at 50 µM ([4]; concentration 50 µM): 61%
"CCOc1ccc(N2CCN(C(=O)c3ccc(Nc4ccnc5cc(C(F)(F)F)ccc45)cc3)CC2)cc1 [Compound G18, [4-(4-Ethoxyphenyl)piperazin-1-yl]{4-{[7-(trifluoromethyl)quinolin-4-yl]amino}phenyl}methanone]",98.42±9.98%,87.82±9.55%,70.43±2.98%,65.43±6.72%,72.68±1.96%,86.90±1.67%,> 100 µM,42.8 ± 0.57%,39.5 ± 1.72%,38.7 ± 4.29%,35.5 ± 9.67%,> 100 µM,112.99±2.36%,111.55±2.20%,138.28±6.89%,104.99±4.01%,> 100 µM,210 to 212.3 °C,–,16.3%,–

# Source: publication PMC9181126, “Design, Synthesis, Molecular Docking Analysis and Biological Evaluations of 4-[(Quinolin-4-yl)amino]benzamide Derivatives as Novel Anti-Influenza Virus Agents” (International Journal of Molecular Sciences, 2022)
